These results are taken from ChEMBL document CHEMBL5143695, “Benzobis(imidazole) derivatives as STAT3 signal inhibitors with antitumor activity” (Bioorg Med Chem, 2022).

pIC50: −log10 of the molar value. Calls of active or inactive are those of the source. The calls are words filed in the database; no cut-off is given here.

For experiment [1], the system named is HepG2. Nature of the experiment: Induction of apoptosis in human HepG2 cells assessed as viable cells at 5 uM incubated for 48 hrs by Annexin V/PI staining based flow cytometry method (reference value: 92.5%). The class given is functional. Conditions: read-out: Activity. For orientation: A flow cytometer gives signals particle by particle.
In experiment [2] the test system is HepG2. Put plainly: Antitumor activity against human HepG2 cells assessed as reduction in cell viability incubated for 72 hrs by MTT assay. The class given is functional, cell-based. The following applies: HepG2, 72 h. A general note: Tetrazolium dyes change colour on reduction, which living cells bring about.
For experiment [3], the target named is Signal transducer and activator of transcription 3 (Homo sapiens) (UniProt P40763). Put plainly: Inhibition of STAT3 phosphorylation at Y705 residue in human HepG2 cells measured after 16 hrs by Western blotting analysis. The class given is cell-based. Conditions: dose 2.5-20 µM, DDE = dose-dependent effect. Background: In western blotting, separated proteins are transferred to a membrane and probed.
Chain of Signal transducer and activator of transcription 3 (Homo sapiens) (P40763 whole entry): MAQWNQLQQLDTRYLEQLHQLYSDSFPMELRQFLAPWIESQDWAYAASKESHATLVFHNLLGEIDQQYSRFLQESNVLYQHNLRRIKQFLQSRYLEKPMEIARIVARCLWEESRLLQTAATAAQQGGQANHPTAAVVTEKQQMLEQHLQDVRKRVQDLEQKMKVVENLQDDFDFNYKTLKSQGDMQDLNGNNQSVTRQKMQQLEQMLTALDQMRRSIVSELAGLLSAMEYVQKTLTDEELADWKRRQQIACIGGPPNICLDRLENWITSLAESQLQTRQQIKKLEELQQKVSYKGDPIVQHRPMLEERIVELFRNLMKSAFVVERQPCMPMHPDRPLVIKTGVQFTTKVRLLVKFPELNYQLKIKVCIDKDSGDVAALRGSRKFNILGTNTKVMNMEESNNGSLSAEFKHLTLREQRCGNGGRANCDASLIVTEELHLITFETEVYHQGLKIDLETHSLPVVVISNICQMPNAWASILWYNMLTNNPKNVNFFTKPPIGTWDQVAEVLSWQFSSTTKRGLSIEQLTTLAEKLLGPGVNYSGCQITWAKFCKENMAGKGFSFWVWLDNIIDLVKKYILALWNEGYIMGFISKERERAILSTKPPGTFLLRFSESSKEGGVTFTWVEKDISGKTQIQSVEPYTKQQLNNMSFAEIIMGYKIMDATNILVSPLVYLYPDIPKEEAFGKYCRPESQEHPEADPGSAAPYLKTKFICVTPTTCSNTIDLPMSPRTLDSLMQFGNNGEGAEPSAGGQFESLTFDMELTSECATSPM

For experiment [4] the target is unchanged. Nature of the experiment: Binding affinity to STAT3 (unknown origin) expressed in Escherichia coli BL21 (DE3) assessed as thermal stability by measuring STAT3 accumulation at 55 to 80 degree C at 100 uM incubated for 30 mins by thermal shift assay.
Experiment [5] has the same target. Nature of the experiment: Inhibition of STAT3 nuclear translocation in human HepG2 cells assessed as decrease in nuclear STAT3 level at 5 to 10 microM incubated overnight by immunofluorescence analysis. The class given is cell-based. The following applies: dose 5-10 µM.
Experiment [6] shares this target. Nature of the experiment: Inhibition of STAT3 dimerization in human HepG2 cells assessed as decrease in STAT3 dimer formation at 5 to 10 uM incubated for 24 hrs by SDS-PAGE based DSS crosslink assay. The class given is cell-based. The following applies: dose 5-10 µM.
Experiment [7] shares this target. Nature of the experiment: Inhibition of STAT3 dimerization in human HepG2 cells assessed as increase in STAT3 monomer expression at 5 to 10 uM incubated for 24 hrs by DSS crosslink assay. The class given is cell-based. Conditions: dose 5-10 µM.
The subject of experiment [8] is HepG2. Nature of the experiment: Induction of apoptosis in human HepG2 cells assessed as early apoptotic cells at 5 uM incubated for 48 hrs by Annexin V/PI staining based flow cytometry method (reference value: 3.31%). The class given is functional.
The test system of experiment [9] is HepG2. Nature of the experiment: Induction of apoptosis in human HepG2 cells assessed as necrotic cells at 20 uM incubated for 48 hrs by Annexin V/PI staining based flow cytometry method (reference value: 0.57%). The class given is functional.
Experiment [10] deals with ECa-109 cell line. Put plainly: Induction of apoptosis in human EC109 cells assessed as necrotic cells at 5 uM incubated for 48 hrs by Annexin V/PI staining based flow cytometry method (reference value: 0.73%). The class given is functional.
The test system of experiment [11] is ECa-109 cell line. Nature of the experiment: Induction of apoptosis in human EC109 cells assessed as viable cells at 10 uM incubated for 48 hrs by Annexin V/PI staining based flow cytometry method (reference value: 91.7%). The class given is functional. Conditions: read-out: Activity.
For experiment [12], the system named is ECa-109 cell line. Nature of the experiment: Induction of apoptosis in human EC109 cells assessed as necrotic cells at 10 uM incubated for 48 hrs by Annexin V/PI staining based flow cytometry method (reference value: 0.73%). The class given is functional.
Experiment [13] deals with ECa-109 cell line. Nature of the experiment: Induction of apoptosis in human EC109 cells assessed as viable cells at 20 uM incubated for 48 hrs by Annexin V/PI staining based flow cytometry method (reference value: 91.7%). The class given is functional. The following applies: read-out: Activity.
In experiment [14] the test system is ECa-109 cell line. Nature of the experiment: Induction of apoptosis in human EC109 cells assessed as late apoptotic cells at 20 uM incubated for 48 hrs by Annexin V/PI staining based flow cytometry method (reference value: 6.17%). The class given is functional.
The subject of experiment [15] is ECa-109 cell line. Nature of the experiment: Induction of cell cycle arrest in human EC109 cells assessed as decrease in cells at S phase incubated for 24 hrs by flow cytometric analysis (reference value: 36.08%). Further details: scale not given: the % may be the effect or the level left. The class given is functional.
Experiment [16] relates to HepG2. Nature of the experiment: Antitumor activity against human HepG2 cells xenografted in BALB/c athymic nude mouse assessed as tumor growth inhibition at 40 mg/kg, ip administered daily for 24 days relative to control. The class given is functional. Conditions: HepG2, 576 h, time 24 day, read-out: TGI.
Experiment [17] relates to HepG2. Put plainly: Antitumor activity against human HepG2 cells xenografted in BALB/c athymic nude mouse assessed as decrease in Ki67 expression level at 20 to 40 mg/kg, ip administered daily for 24 days. The class given is functional, organism-based. The following applies: dose 20-40 mg/kg, time 24.0 day.

One may read the pIC50 as the negative decadic logarithm of the IC50, by convention in mol/L. Consider `CCCn1c(-c2cccc(OC)c2)nc2cc3nc(-c4cccc(OC)c4)n(CCC)c3cc21`, for which the viability at 5 µM in the experiment on HepG2 [1] came to 76.6%. In addition, the pIC50 in the experiment on HepG2 [2] is 5.37. Also, the inhibition result in experiment [3] is “Dde”. The result (in experiment [4]; with HepG2 [17]) was Active. The inhibition result in experiment [5], in experiment [6] and in experiment [7] was “Active” throughout. Further, the Activity in the experiment with HepG2 [8] is recorded as 8.44%; with HepG2 [9], 0.91%; in the experiment on ECa-109 cell line [10], 0.87%; in the experiment on ECa-109 cell line [12], 1.1%; with ECa-109 cell line [14], 31.4%; with ECa-109 cell line [15], 28.53%. The viability at 10 µM in the experiment on ECa-109 cell line [11] was determined as 70.5%. Moreover, in the experiment with ECa-109 cell line [13], the viability at 20 µM was 46.8%. The inhibition in vivo at 40 mg/kg in the experiment with HepG2 [16] was 47.3%.
